Each block holds one molecule with its values, some of them ahead of it.
Assays:
Type in all cases: physicochemical
[1] = Stability study of the crystal form I of compound A and the crystal form I of compound A p-toluenesulfonate (HPLC, XRPD)
Method: A certain amount of samples of the crystal form I of compound A and the crystal form I of compound A p-toluenesulfonate (Batch No.: PTSA-A1) were placed in a stability test chamber, and kept at 40° C./75%RH and 60° C. for 7 days, respectively. The samples were tested by HPLC and XRPD at various time points.

[2] = Solubility study in SGF, FaSSIF and FeSSIF (HPLC of filtrate, XRPD of solid); settings: 37° C.; for Crystal form: XRPD of solid
Method: The solubilities of the crystal form I of compound A and the crystal form I of compound A p-toluenesulfonate in SGF (simulated gastric fluid), FaSSIF (fasted state simulated intestinal fluid) and FeSSIF (fed state simulated intestinal fluid) were studied.
The solubilities of samples in SGF, FaSSIF and FeSSIF at 37° C. for 24 hours were determined. 40 mg of the sample was placed in a sample bottle, and 1.5 mL of solvent was added. The mixture was mixed well, and shaken on a shaker at 200 rpm for 24 hours. The suspension was filtered at 0.5, 2 and 24 hours. The filtrate was analyzed by HPLC, and the solid was tested by XRPD.

[3] = Dynamic moisture adsorption and desorption analysis (DVS); settings: for crystal form after DVS test (XRPD): before and after DVS test; for hygroscopicity (DVS): moisture range 0% to 90%
Method: The instrument model used for dynamic moisture adsorption and desorption analysis was IGA Sorp (Hidentity Isochema). The samples were measured in a gradient mode with a moisture range of 0% to 90%, wherein the humidity increment of each gradient was 10%.

Purity ([1]; 40° C./75% RH, Day 0, HPLC): 97.9%
Purity ([1]; 40° C./75% RH, Day 3, HPLC): 97.9%
Crystal form ([1]; 40° C./75% RH, Day 3, XRPD): Initial crystal form
Purity ([1]; 40° C./75% RH, Day 7, HPLC): 97.9%
Crystal form ([1]; 40° C./75% RH, Day 7, XRPD): Initial crystal form
Purity ([1]; 60° C., Day 0, HPLC): 97.9%
Purity ([1]; 60° C., Day 3, HPLC): 97.9%
Crystal form ([1]; 60° C., Day 3, XRPD): Initial crystal form
Purity ([1]; 60° C., Day 7, HPLC): 97.9%
Crystal form ([1]; 60° C., Day 7, XRPD): Initial crystal form
Solubility ([2]; FaSSIF, 0.5 h): 4.5 µg/mL
pH ([2]; FaSSIF, 0.5 h): 6.38
Crystal form ([2]; FaSSIF, 0.5 h): Changed
Solubility ([2]; FaSSIF, 2 h): 3.7 µg/mL
pH ([2]; FaSSIF, 2 h): 3.48
Crystal form ([2]; FaSSIF, 2 h): Changed
Solubility ([2]; FaSSIF, 24 h): 16 µg/mL
pH ([2]; FaSSIF, 24 h): 1.91
Crystal form ([2]; FaSSIF, 24 h): Changed
Solubility ([2]; FeSSIF, 0.5 h): 100 µg/mL
pH ([2]; FeSSIF, 0.5 h): 4.53
Crystal form ([2]; FeSSIF, 0.5 h): Changed
Solubility ([2]; FeSSIF, 2 h): 93 µg/mL
pH ([2]; FeSSIF, 2 h): 4.51
Crystal form ([2]; FeSSIF, 2 h): Changed
Solubility ([2]; FeSSIF, 24 h): 180 µg/mL
pH ([2]; FeSSIF, 24 h): 4.50
Crystal form ([2]; FeSSIF, 24 h): Changed
Solubility ([2]; SGF, 0.5 h): 97 µg/mL
pH ([2]; SGF, 0.5 h): 1.23
Crystal form ([2]; SGF, 0.5 h): Initial crystal form
Solubility ([2]; SGF, 2 h): 67 µg/mL
pH ([2]; SGF, 2 h): 1.19
Crystal form ([2]; SGF, 2 h): Initial crystal form
Solubility ([2]; SGF, 24 h): 45 µg/mL
pH ([2]; SGF, 24 h): 1.18
Crystal form ([2]; SGF, 24 h): Changed
SMILES: Cc1ccc(S(=O)(=O)O)cc1.O=C(Nc1ccc(OC(F)(F)Cl)cc1)c1cnc(N2CC[C@@H](F)C2)c(-c2cnccn2)c1

water absorption ([3]; 0-60%RH): about 0.4%
water absorption ([3]; 0-90%RH): about 1.5%
crystal form after DVS test (XRPD) [3]: not changed
hygroscopicity (DVS) [3]: slightly hygroscopic
SMILES: O=C(Nc1ccc(OC(F)(F)Cl)cc1)c1cnc(N2CC[C@@H](F)C2)c(-c2cnccn2)c1.O=S(=O)(O)c1ccccc1 [(R)-N-(4-(chlorodifluoromethoxy)phenyl)-6-(3-fluoropyrrolidin-1-yl)-5-(pyrazin-2-yl)nicotinamide benzenesulfonate]

water absorption ([3]; 0-80%RH): about 0.67%
crystal form after DVS test (XRPD) [3]: not changed
hygroscopicity (DVS) [3]: slightly hygroscopic
SMILES: Br.O=C(Nc1ccc(OC(F)(F)Cl)cc1)c1cnc(N2CC[C@@H](F)C2)c(-c2cnccn2)c1 [(R)-N-(4-(chlorodifluoromethoxy)phenyl)-6-(3-fluoropyrrolidin-1-yl)-5-(pyrazin-2-yl)nicotinamide hydrobromide]

water absorption ([3]; 0-40%RH (relative humidity)): about 0.4%
water absorption ([3]; 0-90%RH): about 2.8%
crystal form after DVS test (XRPD) [3]: not changed
hygroscopicity (DVS) [3]: slightly hygroscopic
SMILES: Cl.O=C(Nc1ccc(OC(F)(F)Cl)cc1)c1cnc(N2CC[C@@H](F)C2)c(-c2cnccn2)c1 [(R)-N-(4-(chlorodifluoromethoxy)phenyl)-6-(3-fluoropyrrolidin-1-yl)-5-(pyrazin-2-yl)nicotinamide hydrochloride]

— patent publication US20230322717A1, “SOLID FORM OF PYRAZINE SUBSTITUTED NICOTINAMIDE, AND PREPARATION AND USE THEREOF” (Shenzhen TargetRx, Inc., priority 2020, published 2023)
